Activity calls are given as the source filed them. No cut-off for these calls is given here.
Target: T1, Tyrosinase (Agaricus bisporus, UniProt O42713)
T1 sequence (O42713 whole entry): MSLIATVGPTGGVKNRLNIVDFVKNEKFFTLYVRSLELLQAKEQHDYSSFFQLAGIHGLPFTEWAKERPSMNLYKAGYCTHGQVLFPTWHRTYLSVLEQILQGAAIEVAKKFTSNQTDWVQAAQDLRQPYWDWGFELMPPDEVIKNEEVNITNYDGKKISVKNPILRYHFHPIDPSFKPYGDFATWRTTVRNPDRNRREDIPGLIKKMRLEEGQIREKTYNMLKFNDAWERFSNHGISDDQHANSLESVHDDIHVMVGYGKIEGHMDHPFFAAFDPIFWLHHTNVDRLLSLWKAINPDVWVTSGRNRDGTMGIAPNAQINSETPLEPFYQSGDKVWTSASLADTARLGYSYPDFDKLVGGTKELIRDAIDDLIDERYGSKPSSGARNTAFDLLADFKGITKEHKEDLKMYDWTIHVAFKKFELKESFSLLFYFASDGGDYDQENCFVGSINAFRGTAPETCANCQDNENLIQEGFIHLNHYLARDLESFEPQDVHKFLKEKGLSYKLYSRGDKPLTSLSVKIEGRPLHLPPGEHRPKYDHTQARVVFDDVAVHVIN
Assay: Inhibition of mushroom tyrosinase diphenolase activity using L-DOPA as substrate preincubated with substrate for 10 mins followed by protein addition measured after 5 mins by spectrophotometric method

Question: Which IC50 does the source give for `COc1ccccc1C(=O)N1CCN(Cc2ccc(F)cc2)CC1` here?
Answer: 2.03 µM

Question: `O=C(c1ccc(F)cc1)N1CCN(Cc2ccc(F)cc2)CC1` was tested. Which IC50 did it give?
Answer: 7.77 µM

Question: For `O=C(c1cccc(O)c1)N1CCN(Cc2ccc(F)cc2)CC1`, which IC50 is on record?
Answer: 12.6 µM

Question: With `CC(=O)N1CCC(Cc2ccc(F)cc2)CC1` as the molecule, how does the IC50 read?
Answer: 25.1 µM

Question: How did the IC50 turn out when `CCC(=O)N1CCN(Cc2ccc(F)cc2)CC1` was run?
Answer: 51.1 µM

Question: With `COc1ccc(C(=O)N2CCN(Cc3ccc(F)cc3)CC2)cc1` as the molecule, how does the IC50 read?
Answer: 9.14 µM

Question: How did the IC50 turn out when `CC(C)C(=O)N1CCC(Cc2ccc(F)cc2)CC1` was run?
Answer: 35.3 µM

Question: For `Cc1cccc(C(=O)N2CCN(Cc3ccc(F)cc3)CC2)c1`, which IC50 is on record?
Answer: 174 µM

Question: How did the IC50 turn out when `O=C(c1ccccc1F)N1CCN(Cc2ccc(F)cc2)CC1` was run?
Answer: 3.75 µM

Question: With `CCC(=O)N1CCC(Cc2ccc(F)cc2)CC1` as the molecule, how does the IC50 read?
Answer: 24.1 µM

Question: How did the IC50 turn out when `Fc1ccc(CN2CCNCC2)cc1` was run?
Answer: 85.5 µM

Question: `CC(=O)N1CCN(Cc2ccc(F)cc2)CC1` was tested. Which IC50 did it give?
Answer: 45.9 µM

Question: `O=C(c1ccccc1)N1CCC(Cc2ccc(F)cc2)CC1` was tested. Which IC50 did it give?
Answer: 19.5 µM

Question: `Cc1ccccc1C(=O)N1CCN(Cc2ccc(F)cc2)CC1` was tested. Which IC50 did it give?
Answer: 5.25 µM

Question: For `O=C(c1ccc(O)cc1)N1CCN(Cc2ccc(F)cc2)CC1`, which IC50 is on record?
Answer: 27.4 µM

Question: `O=C(c1ccccc1O)N1CCN(Cc2ccc(F)cc2)CC1` was tested. Which IC50 did it give?
Answer: 7.06 µM

Question: For `COc1cccc(C(=O)N2CCN(Cc3ccc(F)cc3)CC2)c1`, which IC50 is on record?
Answer: 27 µM

Question: With `Cc1ccc(C(=O)N2CCN(Cc3ccc(F)cc3)CC2)cc1` as the molecule, how does the IC50 read?
Answer: 33.1 µM

Question: For `CC(C)C(=O)N1CCN(Cc2ccc(F)cc2)CC1`, which IC50 is on record?
Answer: 30.9 µM

Question: For `O=C(c1cccc(F)c1)N1CCN(Cc2ccc(F)cc2)CC1`, which IC50 is on record?
Answer: 54.7 µM

Question: For `O=C(c1ccccc1)N1CCN(Cc2ccc(F)cc2)CC1`, which IC50 is on record?
Answer: 13.3 µM

Target: T2, Tyrosinase (Agaricus bisporus) (UniProt O42713)
T2 sequence (whole entry): T1 sequence (O42713 whole entry)
Assay: Non-competitive inhibition of mushroom tyrosinase diphenolase activity at 2 to 8 uM using L-DOPA as substrate preincubated with substrate for 30 mins followed by protein addition measured after 5 mins by Lineweaver-Burk double-reciprocal plot analysis

Question: For `COc1ccccc1C(=O)N1CCN(Cc2ccc(F)cc2)CC1`, which inhibition is on record?
Answer: Active

— ChEMBL document CHEMBL4177754, “Targeting Tyrosinase: Development and Structural Insights of Novel Inhibitors Bearing Arylpiperidine and Arylpiperazine Fragments” (J Med Chem, 2018)
